Laboratory results taken from patent publication US20260240913A1, “METHODS FOR PRODUCING STABLE HUMAN CHONDROCTYES AND THEIR USE FOR PROMOTING CARTILLAGE GROWTH AND REPAIR” (Cambridge Enterprise Limited, priority 2023, published 2026).

Experiments:
hBMSC/SSC organoids = assay: Pan-ID inhibition in hBMSC/SSC organoids during chondrogenic differentiation, qRT-PCR of chondro-osteogenic genes; assay type: cell-based, human
Method: Chondrogenic Differentiation of hBMSCs/SSC-derived Organoids: To generate control organoids, 2.5×10^5 hBMSCs/SSCs (passage 2) were suspended in 1 mL chondrogenic medium—which consisted of high glucose Dulbecco's Modified Eagle Medium (DMEM) with sodium pyruvate (ThermoFisher, Cat. No. 11995073), 1% insulin-transferrin-selenium (ThermoFisher, Cat. No. 51500056), 100 nM dexamethasone, 50 ug/mL L-ascorbic acid phosphate magnesium salt n-hydrate, 1% penicillin/streptomycin, and 10 ng/mL TGFβ1 (Peprotech, Cat. No. 100-21)—in 14 mL conical tubes. The same process was employed to generate HyA-FMB organoids, except each conical tube contained 3 mg of pre-sterilized HyA-FMBs (70% ethanol washes overnight), which were constructed according to established protocols (Kuznetsov et al., Stem Cells Translational Medicine, 26, 586-592. //doi.org/10.1016/j.joca.2018.02.293, 2019). […]
qRT-PCR. […] Lysates were processed according to Qiagen's RNeasy Mini Kit with DNAse treatment (Cat. No. 74004), and RNA quality and concentration was measured using NanoDrop. cDNA was constructed using SuperScript III First-Strand Synthesis SuperMix (ThermoFisher, Cat. No. 11752050) with no Reverse Transcriptase added to negative controls. Samples were measured in triplicate using the Quantstudio 6 Flex system (Applied Biosystems), and ΔΔCT values were calculated using GAPDH as internal controls.

hBMSC/SSC = details: chronic BMP blockade; Franco et al. 2022; cited from earlier work
Hedgehog = details: according to Wu et al. 2021; cited from earlier work
hBMSCs/SSCs = assay: scRNA-seq of hBMSC/SSC organoids with or without HyA-FMBs during chondrogenic differentiation; assay type: cell-based, human; details: day 10 of chondrogenic differentiation
Method: Chondrogenic Differentiation of hBMSCs/SSC-derived Organoids: To generate control organoids, 2.5×10^5 hBMSCs/SSCs (passage 2) were suspended in 1 mL chondrogenic medium—which consisted of high glucose Dulbecco's Modified Eagle Medium (DMEM) with sodium pyruvate (ThermoFisher, Cat. No. 11995073), 1% insulin-transferrin-selenium (ThermoFisher, Cat. No. 51500056), 100 nM dexamethasone, 50 ug/mL L-ascorbic acid phosphate magnesium salt n-hydrate, 1% penicillin/streptomycin, and 10 ng/mL TGFβ1 (Peprotech, Cat. No. 100-21)—in 14 mL conical tubes. […]
Control and HyA-FMB organoids from days 1-10 and ectopic HyA-FMB transplant were digested in high-glucose DMEM containing 0.2% collagenase II (ThermoFisher, Cat. No. 17101015), 0.1% hyaluronidase (Merck, Cat. No. H3506), and 0.1% dispase (Sigma, Cat. No. D4693) with gentle pipetting every 20-30 minutes. […] Only samples with >95% viability were submitted for single-cell capture, as measured by Vi-CELL BLU Cell Viability Analyzer (Beckman Coulter). […] Reads were mapped using GRCh38-2020-A reference transcriptome, and libraries were processed using Cell Ranger version 7.0. […] Differentially expressed genes, which represented at least 25% of each cluster (p<0.05), were analyzed using gProfiler (biit.cs.ut.ee/gprofiler/gost) for functional enrichment analysis and cell cluster annotation.

sclerotome cells = assay: Chondrogenic differentiation of hiPSC-derived sclerotome cells (pellet cultures, chondrospheroids), staining and Incucyte imaging; assay type: cell-based, human; details: pellet cultures from all sclerotome cells; 10 ng/mL each factor; across 42 days
Method: Staining Procedure. Paraffin-embedded tissues were used for immunofluorescence. Tissues were sectioned at 7 μm and heated for 1 hour at 60° C., then rehydrated in 2 washes of xylene (5 minutes), 100% ethanol (5 minutes), 95% ethanol (5 minutes), 70% ethanol (5 minutes), and distilled water (5 minute). Two different antigen retrieval methods were used: (1) for staining with COL1A1, COL2A1, COL10A1, PRG4, and hVIMENTIN, tissues were treated with 2 mg/mL hyaluronidase/PBS solution for 1 hour at 37° C., followed by a PBS wash and treatment with Pepsin (Millipore Sigma, Cat. No. R2283) for 5-10 minutes at 37° C.; (2) for staining with MGP, COMP, DPT, ACAN, and ALPL, tissues were incubated in citrate buffer (Millipore Sigma, Cat. No. C9999) for 1 hour at 70° C., followed by a 15-second wash with distilled water. Cytofix/Cytoperm buffer (BD, Cat. No. 554722) was used in some cases to enhance intracellular staining. Tissues were blocked in staining solution—PBS supplemented with 5% donkey serum (Sigma, Cat. No. D9663) and 0.5% IgePal (Sigma, Cat. No. I3021)—for 30 minutes, then stained with primary antibodies overnight at 4° C. […]
Confocal Imaging. […] Maximum intensity projections were merged in Fiji/Image J (National Institutes of Health) for image analysis and quantifications. […]

Compound: CCC(=O)N(CCC(c1ccc2c(c1)OCO2)c1ccccc1OC)Cc1ccccc1 (stereo not drawn) [AGX51]
- RUNX2, IBSP and COL1A1 (osteogenic) gene expression (hBMSC/SSC organoids; 30 μM AGX51 every 2-3 days for 28 days, qRT-PCR at days 3, 7, 14, 21, 28, versus vehicle): initial decrease in RUNX2 and IBSP expression at days 3 and 7, followed by an increase in RUNX2, IBSP, and COL1A1 expression from days 21-28
- chondrogenic gene expression (SOX9, ACAN, and COL2A1) (hBMSC/SSC organoids; 30 μM AGX51 for 28 days, qRT-PCR): initially decreased, but stabilized

Compound: Cl.c1ccc2c(-c3cnn4cc(-c5ccc(N6CCNCC6)cc5)cnc34)ccnc2c1 [LDN 193189, 4-(6-(4-(piperazin-1-yl)phenyl)pyrazolo[1,5-a]pyrimidin-3-yl)quinoline hydrochloride]
- hypertrophic expression (hBMSC/SSC): does not prevent hypertrophic expression

Compound: c1ccc2c(Oc3nc(Nc4ccc(N5CCOCC5)cc4)c4ncn(C5CCCCC5)c4n3)cccc2c1 [purmorphamine]
- suitability as Hedgehog agonist for sclerotome induction (Hedgehog): effective substitute for the commercially-synthesized Hedgehog agonist 21K

Compound: TGFβ1: transforming growth factor β1, recombinant growth factor in chondrogenic medium
- IBSP+ cell populations (hBMSCs/SSCs): About 90%
- matrix protein expression in sclerotome-derived pellet cultures (sclerotome cells): stable COL1A1 and COL2A1 expression across 42 days, with sporadic ACAN and minimal PRG4 expression
